Measured values taken from US4822800A (Ortho Pharmaceutical Corporation, priority 1986, dated 1989).
Entries after “also recorded” stand apart in the source; their conditions may differ. Counter-ions that a name gives are not always drawn. Like-named read-outs stand apart in the source and are kept apart here.

Key:
[1] = molecular target: T1, Phosphodiesterase fraction III (Canis lupus familiaris, UniProt A0A8I3NYE0); test: inhibition of phosphodiesterase fraction III activity; type: biochemical, canine (heart); details: for IC50: cyclic AMP 0.10-1.0 uM, pH 7.4, canine heart enzyme; for phosphodiesterase fraction III inhibition (in words): summary of Table 5
T1 construct: isolated as an isozyme from the crude canine heart homogenate; from tissue; host or cells: canine heart (crude homogenate, ion exchange chromatography, third and last PDE peak)
T1 sequence (A0A8I3NYE0 1-1135): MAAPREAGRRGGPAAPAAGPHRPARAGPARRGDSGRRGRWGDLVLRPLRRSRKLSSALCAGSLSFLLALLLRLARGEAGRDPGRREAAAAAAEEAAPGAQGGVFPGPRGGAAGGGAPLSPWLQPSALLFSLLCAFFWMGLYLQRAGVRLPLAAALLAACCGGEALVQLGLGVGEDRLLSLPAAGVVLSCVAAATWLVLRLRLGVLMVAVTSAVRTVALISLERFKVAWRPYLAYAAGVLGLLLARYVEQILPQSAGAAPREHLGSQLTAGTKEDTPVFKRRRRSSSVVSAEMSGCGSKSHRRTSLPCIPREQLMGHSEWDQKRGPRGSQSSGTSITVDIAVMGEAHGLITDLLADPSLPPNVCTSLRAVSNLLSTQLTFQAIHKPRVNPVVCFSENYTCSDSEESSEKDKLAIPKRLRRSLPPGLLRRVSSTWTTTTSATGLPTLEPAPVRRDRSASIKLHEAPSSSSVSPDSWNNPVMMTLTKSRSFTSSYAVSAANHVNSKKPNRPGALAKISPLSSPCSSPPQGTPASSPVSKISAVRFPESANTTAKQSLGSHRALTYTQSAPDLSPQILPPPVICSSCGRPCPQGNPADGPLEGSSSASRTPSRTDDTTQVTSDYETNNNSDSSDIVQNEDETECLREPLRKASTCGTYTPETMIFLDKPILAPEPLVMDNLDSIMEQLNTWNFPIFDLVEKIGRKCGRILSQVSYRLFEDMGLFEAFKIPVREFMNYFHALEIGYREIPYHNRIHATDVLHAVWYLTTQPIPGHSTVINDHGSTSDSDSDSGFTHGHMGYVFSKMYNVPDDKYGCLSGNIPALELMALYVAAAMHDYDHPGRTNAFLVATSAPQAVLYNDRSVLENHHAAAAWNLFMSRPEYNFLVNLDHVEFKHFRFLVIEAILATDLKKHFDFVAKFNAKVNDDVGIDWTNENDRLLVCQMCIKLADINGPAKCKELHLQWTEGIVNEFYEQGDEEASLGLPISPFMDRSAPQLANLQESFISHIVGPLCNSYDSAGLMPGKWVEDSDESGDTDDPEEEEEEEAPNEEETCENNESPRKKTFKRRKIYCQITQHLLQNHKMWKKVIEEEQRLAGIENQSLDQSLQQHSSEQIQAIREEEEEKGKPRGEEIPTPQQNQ

adult mongrel dogs [2] = test: acute in vivo cardiotonic activity in anesthetized dogs; parameters: species or system dog (adult mongrel); details: for change in vivo at 0.1 mg/kg / change in vivo at 1.875 mg/kg / change in vivo at 3.75 mg/kg / change in vivo at 0.875 mg/kg / change in vivo at 8.75 mg/kg: Canis lupus familiaris, cardiotonic, relative to controls; for change in vivo at 0.1 mg/kg: dose 0.100 mg/kg intravenous; for change in vivo at 1.875 mg/kg: dose 1.875 mg/kg intravenous; for change in vivo at 3.75 mg/kg: dose 3.75 mg/kg intravenous; for change in vivo at 0.875 mg/kg: dose 0.875 mg/kg intravenous; for change in vivo at 8.75 mg/kg: dose 8.75 mg/kg intravenous
Description: The acute in vivo cardiotonic activity of compounds prepared according to the present invention was determined according to a modification of the procedure described by Alousi et al., Circ. Res., 45, 666 (1979).
In particular, adult mongrel dogs were anesthetized with sodium pentobarbital and were artificially respired. Arterial pressure was monitored via a femoral artery, and the pulse pressure was used to trigger a cardiotachometer for heart rate. Left ventricular pressure was determined with a Millar catheter, and dP/dt (the change in ventricular pressure with time) was derived. Cardiac output was determined by measuring ascending aortic blood flow with an electromagnetic flow probe, and myocardial contractile force was measured with a Walton Brodie strain gauge sutured to the right ventricle. Lead II EKG was also recorded.
A standard dose (10 μg/kg/min) of dopamine was administered to assess myocardial responsiveness.
Compounds of the invention were administered by intravenous infusion or bolus […] administration, and the effects on cardiovascular parameters were determined.
Dose related effects of the test compound on blood pressure (BP), heart rate (HR), maximum change in left ventricular pressure with time (dP/dt max),% change in cardiac force (CF) and the increase in mean arterial blood pressure relative to controls (MABP) were compared to pretreatment control values, expressed as a% change and rated for activity.

adult mongrel dogs [3] = test: renal vasodilating activity in anesthetized dogs; type: in vivo, dog (adult mongrel); details: for change in vivo at 5 mg/kg / change in vivo at 13.9 mg/kg / change in vivo at up to 13.9 mg/kg: Canis lupus familiaris, renal vasodilator, relative to controls; for change in vivo at 5 mg/kg: dose 5.0 mg/kg intravenous; for change in vivo at 13.9 mg/kg / change in vivo at up to 13.9 mg/kg: dose 13.9 mg/kg intravenous
Description: Goldberg et al, J. Pharmacol. Exp. Ther., 163, 188 (1968), performed an investigation of the structural requirements for dopamine-like renal vasodilation of phenethylamines and apomorphine. The following procedure is a variation of the assay described in that report.
Adult mongrel dogs were anesthetized and surgically prepared for electromagnetic measurement of renal artery blood flow. A carotid artery was cannulated for measuring arterial blood pressure, and drugs were administered intravenously. Heart rate was monitored with a cardiotachometer. Renal vascular resistance was calculated as the ratio of mean arterial blood pressure/renal artery blood flow. Dopamine was infused intravenously at 3 μg/kg/min for ten minutes (at an infusion rate of about 1 ml/min) to determine responsiveness of each dog to renal dopamine receptor stimulation. Cumulative dose-response data were obtained by infusing a compound of this invention at progressively increasing (usually three-fold) infusion rates, each dose being infused for five minutes. The maximum % increase from pre-drug control in renal artery blood flow (or a decrease in renal vascular resistance) was determined for each infusion dose.
RBF values are percent change in renal blood flow. RVR values are percent change in renal vascular resistance. MABP and HR are percent changes in mean arterial blood pressure and heart rate, respectively, relative to controls.

[4] = read-out: MABP (mean arterial blood pressure)
[5] = read-out: dP/dt (maximum change left ventricular pressure with time)
[6] = read-out: RBF (renal blood flow)
[7] = read-out: RVR (renal vascular resistance)

SMILES	change in vivo at 13.9 mg/kg (adult mongrel dogs [3]; read-out: HR (heart rate))	change in vivo at 13.9 mg/kg (adult mongrel dogs [3]; [4])	change in vivo at 13.9 mg/kg (adult mongrel dogs [3]; [6])	change in vivo at up to 13.9 mg/kg (adult mongrel dogs [3]; [7])	change in vivo at 0.875 mg/kg (adult mongrel dogs [2]; read-out: CF (cardiac force))	change in vivo at 0.875 mg/kg (adult mongrel dogs [2]; read-out: HR (heart rate))	change in vivo at 0.875 mg/kg (adult mongrel dogs [2]; [4])	change in vivo at 0.875 mg/kg (adult mongrel dogs [2]; [5])	other results
COc1cc2c(C)nc(O)c(C)c2cc1OC [AB]	–	–	–	–	–	–	–	–	IC50 [1]: 8.3 µM; phosphodiesterase fraction III inhibition (in words) [1]: inhibit phosphodiesterase fraction III activity; change in vivo at 0.1 mg/kg (adult mongrel dogs [2]; read-out: CF (cardiac force)): 80%; change in vivo at 0.1 mg/kg (adult mongrel dogs [2]; read-out: HR (heart rate)): 15%; change in vivo at 0.1 mg/kg (adult mongrel dogs [2]; [4]): -4%; change in vivo at 0.1 mg/kg (adult mongrel dogs [2]; [5]): 48%
COc1cc2c(CCl)nc(O)c(Cl)c2cc1OC [AD]	–	–	–	–	–	–	–	–	change in vivo at 5 mg/kg (adult mongrel dogs [3]; [6]): 16%; change in vivo at 5 mg/kg (adult mongrel dogs [3]; [7]): -32%; renal vasodilating activity (in words) (adult mongrel dogs [3]; summary of Table 4): renal vasodilating properties; IC50 [1]: 11 µM; phosphodiesterase fraction III inhibition (in words) [1]: inhibit phosphodiesterase fraction III activity; also recorded: phosphodiesterase fraction III inhibiting properties; change in vivo at 1.875 mg/kg (adult mongrel dogs [2]; read-out: CF (cardiac force)): 111%; change in vivo at 1.875 mg/kg (adult mongrel dogs [2]; read-out: HR (heart rate)): 21%; change in vivo at 1.875 mg/kg (adult mongrel dogs [2]; [4]): -3%; change in vivo at 1.875 mg/kg (adult mongrel dogs [2]; [5]): 106%; cardiotonic activity (in words) (adult mongrel dogs [2]; summary of Table 4): cardiotonic properties
Cc1nc(O)c(CCC(=O)O)c2cc(O)c(O)cc12 [Compound G, 4-β-Carboxyethyl-3,6,7-trihydroxy-1-methyl-3-isoquinoline Hydrobromide]	-3%	-5%	11%	-14%	–	–	–	–	change in vivo at 3.75 mg/kg (adult mongrel dogs [2]; read-out: CF (cardiac force)): 82%; change in vivo at 3.75 mg/kg (adult mongrel dogs [2]; read-out: HR (heart rate)): 13%; change in vivo at 3.75 mg/kg (adult mongrel dogs [2]; [4]): -10%; change in vivo at 3.75 mg/kg (adult mongrel dogs [2]; [5]): 32%
COC(=O)CCc1c(O)nc(C)c2c(OC)c(OC)c(OC)cc12 [Compound J, 4-carbomethoxyethyl-3-hydroxy-6,7,8-trimethoxy-1-methylisoquinoline]	–	-1%	18%	-23%	22%	8%	-4%	20%	–
COC(=O)CCc1c(O)ncc2cc(OC)c(OC)cc12 [Compound Q, 4-(β-Carbomethoxyethyl)-3-hydroxy-6,7-dimethoxyisoquinoline]	–	–	42%	-23%	53%	7%	-4%	24%	–
COc1ccc2cc(O)ncc2c1OC [D]	3%	-11%	21%	-27%	–	–	–	–	change in vivo at 8.75 mg/kg (adult mongrel dogs [2]; read-out: CF (cardiac force)): 60%; change in vivo at 8.75 mg/kg (adult mongrel dogs [2]; read-out: HR (heart rate)): 13%; change in vivo at 8.75 mg/kg (adult mongrel dogs [2]; [4]): -7%; change in vivo at 8.75 mg/kg (adult mongrel dogs [2]; [5]): 34%
COc1cc2cc(O)nc(C)c2c(OC)c1OC [H]	20%	-12%	41%	-38%	76%	13%	-2%	45%	–
CCc1nc(O)c(CCC(=O)OC)c2cc(OC)c(OC)cc12 [K]	–	–	28%	-28%	47%	10%	-3%	33%	–
COC(=O)C(C)Cc1c(O)nc(C)c2cc(OC)c(OC)cc12 (centres unmarked) [O]	–	–	15%	-18%	–	–	–	–	change in vivo at 1.875 mg/kg (adult mongrel dogs [2]; read-out: CF (cardiac force)): 100%; change in vivo at 1.875 mg/kg (adult mongrel dogs [2]; read-out: HR (heart rate)): 21%; change in vivo at 1.875 mg/kg (adult mongrel dogs [2]; [4]): 0%; change in vivo at 1.875 mg/kg (adult mongrel dogs [2]; [5]): 67%
COC(=O)Cc1c(O)nc(C)c2cc(OC)c(OC)cc12 [W]	–	–	64%	-62%	42%	6%	-1%	28%	–
